The values that follow come from ChEMBL document CHEMBL3421572, “Synthesis of Schiff base derivatives of 4-(2-aminoethyl)-benzenesulfonamide with inhibitory activity against carbonic anhydrase isoforms I, II, IX and XII” (Bioorg Med Chem Lett, 2015).

Targets include Carbonic anhydrase 9 (Homo sapiens, UniProt Q16790); Carbonic anhydrase 12 (Homo sapiens, UniProt O43570); Carbonic anhydrase 1 (Homo sapiens, UniProt P00915).
Data set [1] can be described thus: Chemical stability of the compound in HEPES buffer assessed as compound remaining at 10 mg at pH 7.4 measured at 0 hr by HPLC method. In kind it is physicochemical. Conditions: read-out: Stability.
The nature of data set [2]: Chemical stability of the compound in HEPES buffer assessed as compound remaining at 10 mg at pH 7.4 measured at 10 hrs by HPLC method. In kind it is physicochemical. Conditions: read-out: Stability.
A short description of data set [3]: Chemical stability of the compound in HEPES buffer assessed as compound remaining at 10 mg at pH 7.4 measured at 24 hrs by HPLC method. In kind it is physicochemical. The following applies: read-out: Stability.
Data set [4] can be described thus: Chemical stability of the compound in HEPES buffer assessed as compound remaining at 10 mg at pH 7.4 measured at 3 hrs by HPLC method. Conditions: read-out: Stability. It counts as physicochemical.
Data set [5] in a line: Chemical stability of the compound in HEPES buffer assessed as compound remaining at 10 mg at pH 7.4 measured at 5 hrs by HPLC method. It counts as physicochemical. The following applies: read-out: Stability.

Chain of Carbonic anhydrase 12 (O43570 whole entry): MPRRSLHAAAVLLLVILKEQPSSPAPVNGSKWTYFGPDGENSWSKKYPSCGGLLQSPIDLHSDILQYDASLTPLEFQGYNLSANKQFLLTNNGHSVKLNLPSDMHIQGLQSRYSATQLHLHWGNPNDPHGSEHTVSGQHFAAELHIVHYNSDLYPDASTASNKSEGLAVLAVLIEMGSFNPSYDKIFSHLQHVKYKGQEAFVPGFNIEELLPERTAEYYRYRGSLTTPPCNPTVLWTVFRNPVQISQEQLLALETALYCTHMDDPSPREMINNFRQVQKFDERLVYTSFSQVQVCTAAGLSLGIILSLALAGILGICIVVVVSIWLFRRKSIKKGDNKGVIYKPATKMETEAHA
Chain of Carbonic anhydrase 1 (P00915 whole entry): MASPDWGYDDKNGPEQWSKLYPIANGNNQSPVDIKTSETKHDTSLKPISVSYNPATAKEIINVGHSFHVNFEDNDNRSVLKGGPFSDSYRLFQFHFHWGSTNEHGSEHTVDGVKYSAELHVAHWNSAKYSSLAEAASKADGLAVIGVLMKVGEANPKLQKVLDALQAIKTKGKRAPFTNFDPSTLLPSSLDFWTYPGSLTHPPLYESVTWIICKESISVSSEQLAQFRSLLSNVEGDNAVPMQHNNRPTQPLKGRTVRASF
Description for Carbonic anhydrase 12: Inhibition of recombinant human transmembrane, tumor-associated form of carbonic anhydrase-12 preincubated for 15 mins by stopped flow CO2 hydration assay

As for `Cc1ccc(CNCCc2ccc(S(N)(=O)=O)cc2)cc1`, affinity on Carbonic anhydrase 9 was put at a Ki of 10.2 nM.
The same measure, in the same setting: as for `Cc1cccc(/C=N\CCc2ccc(S(N)(=O)=O)cc2)c1O`, the figure is 295 nM.
`CN(C)c1ccc(/C=N\CCc2ccc(S(N)(=O)=O)cc2)cc1`: the values for the inhibition constant Ki on Carbonic anhydrase 12, on Carbonic anhydrase 9 and on Carbonic anhydrase 1 were 3120 nM, 39.1 nM and 453 nM, respectively.
`NS(=O)(=O)c1ccc(CC/N=C\c2cc(Br)ccc2O)cc1`: the affinity at Carbonic anhydrase 9 corresponds to a Ki of 187 nM.
`NS(=O)(=O)c1ccc(CC/N=C\c2cc(Br)cc(Br)c2O)cc1`: affinity on Carbonic anhydrase 9 was put at a Ki of 163 nM.
Take `NS(=O)(=O)c1ccc(CC/N=C\c2cc(Cl)ccc2O)cc1`: the Ki (usually a measure of affinity in units of concentration, obtained from inhibition or displacement) at Carbonic anhydrase 9 turned out to be 106 nM.
Take `COc1ccc(/C=N\CCc2ccc(S(N)(=O)=O)cc2)cc1`: in data set [1], the remaining at 0 h is 100%. Further, the remaining at 10 h in data set [2] came out at 43%. The same compound returned a Ki at Carbonic anhydrase 9 of 231 nM. In addition, in data set [3], the remaining at 24 h is 8%. For the same compound, the remaining at 3 h in data set [4] is 100%. The remaining at 5 h in data set [5] was found to be 72%.
In turn, `NS(=O)(=O)c1ccc(CC/N=C\c2ccc(OCc3ccccc3)cc2)cc1` displayed a Ki at Carbonic anhydrase 9 of 230 nM.
Turning to `NS(=O)(=O)c1ccc(CCNCc2cc(Cl)ccc2O)cc1`, the affinity at Carbonic anhydrase 9, expressed as Ki, was 15.6 nM.
As for `NS(=O)(=O)c1ccc(CC/N=C\c2ccccc2O)cc1`, the Ki at Carbonic anhydrase 12 was found to be 46.8 nM; at Carbonic anhydrase 9, 138 nM; at Carbonic anhydrase 1, 393 nM.
On to `NS(=O)(=O)c1ccc(CC/N=C\c2ccccc2)cc1`, for which the remaining at 0 h in data set [1] is 100%. The remaining at 10 h in data set [2] was found to be 51%. Further, on Carbonic anhydrase 9, affinity was put at a Ki of 220 nM. For the same compound, the remaining at 24 h in data set [3] came to 14%. For the same compound, in data set [4], the remaining at 3 h is 100%. Besides, the remaining at 5 h in data set [5] was 89%.
On to `NS(=O)(=O)c1ccc(CCNCc2cc(Br)ccc2O)cc1`, for which, on Carbonic anhydrase 9, affinity was put at a Ki of 4.3 nM.
As for `NS(=O)(=O)c1ccc(CCNCc2ccccc2)cc1`, in data set [1], the remaining at 0 h came to 100%. In addition, the figures for the Ki on Carbonic anhydrase 12 and on Carbonic anhydrase 9 were 6.3 nM and 4.3 nM, respectively. Besides, in data set [2], the remaining at 10 h worked out at 100%. Further, the remaining at 24 h in data set [3] amounted to 100%. Besides, the remaining at 3 h in data set [4] worked out at 100%. Besides, the remaining at 5 h in data set [5] is 100%.
In turn, `NS(=O)(=O)c1ccc(CC/N=C\c2cc(Cl)cc(Cl)c2O)cc1` showed a Ki on Carbonic anhydrase 9 of 190 nM.
On the same count and under the same terms, next, `Cc1ccc(/C=N\CCc2ccc(S(N)(=O)=O)cc2)cc1`: 123 nM.
Regarding `Cc1cccc(CNCCc2ccc(S(N)(=O)=O)cc2)c1O`, the affinity on Carbonic anhydrase 9 corresponds to a Ki of 3.7 nM.
Consider `COc1ccc(CNCCc2ccc(S(N)(=O)=O)cc2)cc1`, for which the remaining at 0 h in data set [1] was 100%. Also, the Ki on Carbonic anhydrase 12 came to 37.7 nM; at Carbonic anhydrase 1, 4.6 nM. Moreover, the remaining at 10 h in data set [2] came out at 100%. Also, in data set [3], the remaining at 24 h turned out to be 100%. Also, the remaining at 3 h in data set [4] amounted to 100%. Also, in data set [5], the remaining at 5 h came to 100%.
For the compound `NS(=O)(=O)c1ccc(CCNCc2cc(Br)cc(Br)c2O)cc1`, the affinity on Carbonic anhydrase 9 corresponds to a Ki of 4.1 nM.
`NS(=O)(=O)c1ccc(CCNCc2ccccc2O)cc1` returned an inhibition constant Ki at Carbonic anhydrase 9 of 3.9 nM. This Ki and that of the compound before are within 1.5-fold of each other.
The compound `CCN[C@H]1C[C@H](C)S(=O)(=O)c2sc(S(N)(=O)=O)cc21` [DORZOLAMIDE] registered an inhibition constant Ki on Carbonic anhydrase 12 of 3 nM.
On Carbonic anhydrase 9, `NS(=O)(=O)c1ccc(CCNCc2ccc(OCc3ccccc3)cc2)cc1` showed an inhibitory constant (Ki) of 2.9 nM.
